From ChEMBL document CHEMBL4017441, “Mitigating the inhibition of human bile salt export pump by drugs: opportunities provided by physicochemical property modulation, in silico modeling, and structural modification” (Drug Metab Dispos, 2012)
Structures can show the parent of a compound that is named as a salt.

Biological target: Bile salt export pump (Homo sapiens, UniProt O95342)
Type: ADME

Compound | IC50
CN[C@H]1CC[C@@H](c2ccc(Cl)c(Cl)c2)c2ccccc21 [SERTRALINE] | 29.3 µM
O=c1[nH]c2c(O)ccc(CCNCCS(=O)(=O)CCCOCCc3ccccc3)c2s1 [SIBENADET] | < 10 µM
CO[C@H]1C[C@@H]2CC[C@@H](C)[C@@](O)(O2)C(=O)C(=O)N2CCCC[C@H]2C(=O)O[C@H]([C@H](C)C[C@@H]2CC[C@@H](O)[C@H](OC)C2)CC(=O)[C@H](C)/C=C(\C)[C@@H](O)[C@@H](OC)C(=O)[C@H](C)C[C@H](C)/C=C/C=C/C=C/1C [SIROLIMUS] | < 10 µM
N[C@@H](CC(=O)N1CCn2c(nnc2C(F)(F)F)C1)Cc1cc(F)c(F)cc1F [SITAGLIPTIN] | 148 µM
CNC(=O)c1cc(Oc2ccc(NC(=O)Nc3ccc(Cl)c(C(F)(F)F)c3)cc2)ccn1 [SORAFENIB] | < 10 µM
O=C(CCCN1CCC2(CC1)C(=O)NCN2c1ccccc1)c1ccc(F)cc1 [SPIPERONE] | < 10 µM
CCOC(=O)[C@H](CCc1ccccc1)N[C@@H](C)C(=O)N1CC2(C[C@H]1C(=O)O)SCCS2 [SPIRAPRIL HYDROCHLORIDE] | 47.1 µM
O=C(O)CCC(=O)Nc1ccc(S(=O)(=O)Nc2nccs2)cc1 [SUCCINYLSULFATHIAZOLE] | > 1000 µM
CC(=O)NS(=O)(=O)c1ccc(N)cc1 [SULFACETAMIDE] | > 1000 µM
Nc1ccc(S(=O)(=O)Nc2ccc(Cl)nn2)cc1 [SULFACHLORPYRIDAZINE] | > 1000 µM
Nc1ccc(S(=O)(=O)Nc2ncccn2)cc1 [SULFADIAZINE] | > 1000 µM
COc1cc(NS(=O)(=O)c2ccc(N)cc2)nc(OC)n1 [SULFADIMETHOXINE] | > 1000 µM
COc1ncnc(NS(=O)(=O)c2ccc(N)cc2)c1OC [SULFADOXINE] | > 1000 µM
Cc1ccnc(NS(=O)(=O)c2ccc(N)cc2)n1 [SULFAMERAZINE] | > 1000 µM
Cc1cc(C)nc(NS(=O)(=O)c2ccc(N)cc2)n1 [SULFAMETHAZINE] | > 1000 µM
Cc1nnc(NS(=O)(=O)c2ccc(N)cc2)s1 [SULFAMETHIZOLE] | > 1000 µM
Cc1cc(NS(=O)(=O)c2ccc(N)cc2)no1 [SULFAMETHOXAZOLE] | > 1000 µM
Cc1noc(NS(=O)(=O)c2ccc(N)cc2)c1C [SULFISOXAZOLE] | > 1000 µM
CCN1CCCC1CNC(=O)c1cc(S(N)(=O)=O)ccc1OC (stereo not drawn) [SULPIRIDE] | 276 µM
CCN(CC)CCNC(=O)c1c(C)[nH]c(/C=C2\C(=O)Nc3ccc(F)cc32)c1C [SUNITINIB] | 45.8 µM
Cc1ccc(C(=O)Nc2ccc(S(=O)(=O)O)c3cc(S(=O)(=O)O)cc(S(=O)(=O)O)c23)cc1NC(=O)c1cccc(NC(=O)Nc2cccc(C(=O)Nc3cc(C(=O)Nc4ccc(S(=O)(=O)O)c5cc(S(=O)(=O)O)cc(S(=O)(=O)O)c45)ccc3C)c2)c1 [SURAMIN] | 107 µM
CC[C@H](NC(=O)c1c(O)c(-c2ccccc2)nc2ccccc12)c1ccccc1 [TALNETANT] | < 10 µM
O=C1OC(OC(=O)c2cccnc2Nc2cccc(C(F)(F)F)c2)c2ccccc21 (stereo not drawn) [TALNIFLUMATE] | > 1000 µM
Cc1scc2c1N(C(=O)CN1CCN(C)CC1)c1ccccc1NC2=O [TELENZEPINE] | 315 µM
CC1(C)CC(O)CC(C)(C)N1[O] [TEMPOL] | > 1000 µM

Compound | IC50
CC(C)(C)c1cc(C(C)(C)C)c2oc(C(=O)O)cc(=O)c2c1 [TERBUCROMIL] | < 10 µM
CC(C)(C)c1ccc(C(O)CCCN2CCC(C(O)(c3ccccc3)c3ccccc3)CC2)cc1 (stereo not drawn) [TERFENADINE] | < 17.5 µM
CCCCNc1ccc(C(=O)OCCN(C)C)cc1 [TETRACAINE] | 513 µM
O=C1C(O)=C(O)C(=O)C(O)=C1O [TETROQUINONE] | > 1000 µM
O=C1CCC(N2C(=O)c3ccccc3C2=O)C(=O)N1 (stereo not drawn) [THALIDOMIDE] | > 1000 µM
c1ccc2[nH]c(-c3cscn3)nc2c1 [THIABENDAZOLE] | 560 µM
CSc1ccc2c(c1)N(CCC1CCCCN1C)c1ccccc1S2 (stereo not drawn) [THIORIDAZINE] | 24.3 µM
O=C(O)c1ccccc1S [THIOSALICYLIC ACID] | > 1000 µM
S=P(N1CC1)(N1CC1)N1CC1 [THIOTEPA] | > 1000 µM
CN1CCN(CC/C=C2/c3ccccc3Sc3ccc(S(=O)(=O)N(C)C)cc32)CC1 [THIOTHIXENE] | 30.4 µM
CC(C)(C)NC[C@H](O)COc1nsnc1N1CCOCC1 [TIMOLOL] | > 1000 µM
C[N+]1(C)[C@@H]2C[C@@H](OC(=O)C(O)(c3cccs3)c3cccs3)C[C@H]1[C@@H]1O[C@@H]12 [TIOTROPIUM] | > 1000 µM
Cc1ccc(S(=O)(=O)NC(=O)NN2CCCCCC2)cc1 [TOLAZAMIDE] | 286 µM
Cc1ccc(C(=O)c2cc(O)c(O)c([N+](=O)[O-])c2)cc1 [TOLCAPONE] | < 33.9 µM
Cc1cccc(N(C)C(=S)Oc2ccc3ccccc3c2)c1 [TOLNAFTATE] | < 10.3 µM
COc1ccc2c(C(=S)N(C)CC(=O)O)cccc2c1C(F)(F)F [TOLRESTAT] | 185 µM
CCCc1c(OCCCCc2nnn[nH]2)ccc(C(C)=O)c1O [TOMELUKAST] | < 10.7 µM
CC1(C)O[C@@H]2[C@@H](CO[C@@]3(COS(N)(=O)=O)OC(C)(C)O[C@@H]23)O1 [TOPIRAMATE] | > 1000 µM
CCOCn1cnc2c1c(=O)n(CCCCC(C)(C)O)c(=O)n2C [TORBAFYLLINE] | 305 µM
Cc1cccc(Nc2ccncc2S(=O)(=O)NC(=O)NC(C)C)c1 [TORSEMIDE] | 131 µM
N[C@@H]1C[C@H]1c1ccccc1.N[C@H]1C[C@@H]1c1ccccc1 [TRANYLCYPROMINE] | > 1000 µM
CC1=C(/C=C/C(C)=C/C=C/C(C)=C/C(=O)O)C(C)(C)CCC1 [TRETINOIN] | < 10 µM
C[C@]12C=CC(=O)C=C1CC[C@H]1[C@@H]3C[C@@H](O)[C@](O)(C(=O)CO)[C@@]3(C)C[C@H](O)[C@@]12F [TRIAMCINOLONE] | 236 µM
O=C(CCCN1CCC(O)(c2cccc(C(F)(F)F)c2)CC1)c1ccc(F)cc1 [TRIFLUPERIDOL] | 19.7 µM
CN(C)CCCN1c2ccccc2Sc2ccc(C(F)(F)F)cc21 [TRIFLUPROMAZINE] | 39 µM

Compound | IC50
O=c1[nH]c(=O)n([C@H]2C[C@H](O)[C@@H](CO)O2)cc1C(F)(F)F [TRIFLURIDINE] | > 1000 µM
CCC(COC(=O)c1cc(OC)c(OC)c(OC)c1)(c1ccccc1)N(C)C (stereo not drawn) [TRIMEBUTINE] | < 10 µM
COc1cc(Cc2cnc(N)nc2N)cc(OC)c1OC [TRIMETHOPRIM] | 833 µM
COc1cc(C(=O)N2CCOCC2)cc(OC)c1OC [TRIMETOZINE] | > 1000 µM
Cc1cc2cc3c(C)cc(=O)oc3c(C)c2o1 [TRIOXSALEN] | > 525 µM
Cc1ccc(/C(=C\CN2CCCC2)c2ccccn2)cc1 [TRIPROLIDINE] | 291 µM
Cc1c(C)c2c(c(C)c1O)CCC(C)(COc1ccc(CC3SC(=O)NC3=O)cc1)O2 (stereo not drawn) [TROGLITAZONE] | 6.9 µM
CCN(Cc1ccncc1)C(=O)C(CO)c1ccccc1 (stereo not drawn) [TROPICAMIDE] | 151 µM
CC(C)(C)NCC(O)c1ccccc1Cl (stereo not drawn) [TULOBUTEROL] | > 1000 µM
C[C@H](CCC(=O)O)[C@H]1CC[C@H]2[C@@H]3[C@@H](O)C[C@@H]4C[C@H](O)CC[C@]4(C)[C@H]3CC[C@]12C [URSODIOL] | < 10 µM
CCOC(=O)[C@H](CCc1ccccc1)N[C@@H](C)C(=O)N1N=C(C(C)(C)C)S[C@H]1C(=O)O [UTIBAPRIL] | < 13.5 µM
Clc1ccc(Nc2nnc(Cc3ccncc3)c3ccccc23)cc1 [VATALANIB] | < 10 µM
COc1ccc(C(CN(C)C)C2(O)CCCCC2)cc1 (stereo not drawn) [VENLAFAXINE] | > 1000 µM
CC(=O)CC(c1ccccc1)c1c(O)c2ccccc2oc1=O (stereo not drawn) [WARFARIN] | 115 µM
FC(F)(F)c1cccc(C2=CCN(CCc3ccc4ccccc4c3)CC2)c1 [XALIPRODEN] | 117 µM
Cc1cccc(C)c1N=C1NCCCS1 [XYLAZINE] | > 1000 µM
Cc1cc(C(C)(C)C)cc(C)c1CC1=NCCN1 [XYLOMETAZOLINE] | > 796 µM
COC(=O)[C@@H]1[C@H]2C[C@H]3c4[nH]c5ccccc5c4CCN3C[C@@H]2CC[C@@H]1O [YOHIMBINE] | 254 µM
C[C@](O)(C(=O)Nc1ccc(C(=O)c2ccccc2)cc1)C(F)(F)F [ZD-6169] | 21.4 µM
CC(c1cc2ccccc2s1)N(O)C(N)=O (stereo not drawn) [ZILEUTON] | > 751 µM
BISMUTH SUBSALICYLATE | > 1000 µM
IVERMECTIN | < 10 µM
PHENYLMERCURIC ACETATE | < 10 µM
